{"source": "patent EP0060776B1", "about": "“Medicaments for the treatment of obesity and hyperlipoidemia” (SOMACHIM S.A., priority 1981, dated 1982)", "key": {"[1]": {"test": "Weight gain of genetically obese and normal Zucker rats, daily gavage for 4 weeks", "type": "in vivo, rattes Zucker", "source_text": "On a notamment étudié les effets de l'acide 3,5-diiodo-3'-isopropyl-thyroacétique sur la prise de poids de la ratte génétiquement obèse, par administration au moyen d'une sonde oesophagienne et en comparaison avec des rattes normales.\n(§1) Les animaux employés sont des rattes Zucker âgées de 7 à 8 semaines au début de l'expérimentation. Les animaux ont été placés en cages individuelles et recevaient ad libitum une alimentation équilibrée et vitaminée spéciale pour rats, identique pour tous les lots. La boisson était également présentée ad libitum. Les lots d'animaux ont été établis de telle sorte que le poids-de départ soit sensiblement identique pour les témoins et les traités, chaque lot comporte 6 animaux.\n(§2) On a administré une dose journalière de 17,5 µg (30n mol) par 100 g. de poids corporel pendant 4 semaines. Les poids moyens des animaux traités et non traités ont été notés chaque fin de semaine chez les témoins et chez les obèses. Les résultats sont rassemblés dans le tableau ci-dessous."}, "[2]": {"test": "Weekly food consumption of genetically obese and normal Zucker rats", "type": "in vivo, rattes Zucker", "design": "Consommation d'aliments: unit not given here", "details": "for Consommation d'aliments: weekly, treated", "source_text": "as §1, §2\nPar ailleurs, la consommation hebdomadaire d'aliments a été notée et les résultats rassemblés dans le tableau ci-dessus.\nEnfin le tableau suivant rassemble pour chaque semaine l'observation du rapport : • R = (consommation hebdomadaire (CH))/(gain de poids hebdomadaire (GPH)) [formula]"}, "[3]": {"test": "Blood cholesterol of the treated Zucker rats", "type": "in vivo, rattes Zucker", "source_text": "as §1, §2\nLa cholestérolémie a été dosée chez les animaux dont les courbes pondérales et de consommation alimentaire ont été rapportées ci-dessus. Les résultats sont les suivants : • Rats normaux non traités 0,9-1 g par litre (2,5 mmol par l.) • Rats normaux traités (4 semaines) 0,9-1 g par litre (2,5 mmol par 1.) • Rats génétiquement obèses non traités • 1,7-1,8 (X = 1,75) g par litre (4,51 mmol par litre) • Rats génétiquement obèses traités (4 semaines) • 1,1 g par litre (2,87 mmol par litre)"}, "[4]": {"test": "Acute oral toxicity (DL50) in the rat", "details": "in vivo", "source_text": "La toxicité de l'acide 3,5-diiodo-3'-isopropyt-thyroacétique a également été examinée sur le rat."}, "[5]": {"test": "30-day repeated-dose toxicity in rats at 1/5 of the DL50", "type": "in vivo", "source_text": "Par ailleurs, le 1/5 de la dose L 50 a été administré à 20 rats durant 30 jours, 7 jours sur 7. Aucune mort n'a été constatée. […] La formule sanguine est normale."}, "[6]": {"test": "Magnusson and Kligman sensitisation test", "type": "in vivo, cobaye", "details": "guinea pig", "source_text": "De plus, un test de Manusson et Kligman a été pratiqué chez le cobaye. Ce test prédictif s'est révélé négatif, c'est-à-dire qu'aucun animal n'a montré une quelconque sensibilisation d'ordre allergique au produit."}, "[7]": {"test": "5-day tolerance study in obese human volunteers", "type": "in vivo, homme", "details": "5 obese volunteers, 0,3 mg daily in 3 oral doses, 5 days", "description": "On a administré à un groupe de 5 volontaires obèses une dose journalière de 0,3 mg d'acide 3,5- dilodo-3'-isopropylthyroacétique en 3 prises orales, durant une première période de 5 jours durant lesquels la tolérance fut vérifiée."}, "Patch tests in humans": {"test": "Patch tests in humans", "type": "in vivo, homme", "details": "human"}, "[8]": {"test": "4-week oral treatment of hospitalised obese patients", "type": "in vivo, homme", "details": "for POIDS Après (J+30): 0,3 mg daily orally, 1 400 cal/j diet", "description": "Après cet essai d'autres volontaires obèses ont été traités par l'acide 3,5-dilodo-3'-isopropyl- thyroacétique à la dose journalière de 0,3 mg en 2 prises orales durant 4 semaines. La tolérance fut surveillée très attentivement (malades hospitalisés) et fut parfaite.\nLe poids des 6 patients obèses hospitalisés sous régime hypocalorique, hypoglucidique, hyperproti- dique à 1 400 cal/j et traités comme il est indiqué ci-dessus a régressé. Le tableau ci-après rassemble les résultats obtenus."}, "[9]": {"details": "6 obese patients, 0,3 mg daily, 4 weeks"}}, "data": [{"smiles": "CC(C)c1cc(Oc2c(I)cc(CC(=O)O)cc2I)ccc1O", "note": "[acide 3,5-diiodo-3'-isopropyl-thyroacétique]", "values": [{"measurement": "Poids moyens", "setting": "[1]; genetically obese Zucker rats (Obèses), treated, 17,5 µg per 100 g daily, day 7, initial mean weight 135 g", "value": 148, "unit": "g"}, {"measurement": "Poids moyens", "setting": "[1]; genetically obese Zucker rats (Obèses), treated, 17,5 µg per 100 g daily, day 14, initial mean weight 135 g", "value": 168, "unit": "g"}, {"measurement": "Poids moyens", "setting": "[1]; genetically obese Zucker rats (Obèses), treated, 17,5 µg per 100 g daily, day 21, initial mean weight 135 g", "value": 190, "unit": "g"}, {"measurement": "Poids moyens", "setting": "[1]; genetically obese Zucker rats (Obèses), treated, 17,5 µg per 100 g daily, day 28, initial mean weight 135 g", "value": 206, "unit": "g"}, {"measurement": "prise de poids", "setting": "[1]; genetically obese Zucker rats, 17,5 µg per 100 g body weight", "value": "ralentit la prise de poids"}, {"measurement": "Poids moyens", "setting": "[1]; normal Zucker rats (Témoins), treated, 17,5 µg per 100 g body weight daily by gavage, day 7, initial mean weight 102 g", "value": 119, "unit": "g"}, {"measurement": "Poids moyens", "setting": "[1]; normal Zucker rats (Témoins), treated, 17,5 µg per 100 g daily, day 14, initial mean weight 102 g", "value": 137, "unit": "g"}, {"measurement": "Poids moyens", "setting": "[1]; normal Zucker rats (Témoins), treated, 17,5 µg per 100 g daily, day 21, initial mean weight 102 g", "value": 152, "unit": "g"}, {"measurement": "Poids moyens", "setting": "[1]; normal Zucker rats (Témoins), treated, 17,5 µg per 100 g daily, day 28, initial mean weight 102 g", "value": 163, "unit": "g"}, {"measurement": "croissance", "setting": "[1]; normal Zucker rats, 17,5 µg per 100 g body weight", "value": "ne modifie pas significativement la croissance"}, {"measurement": "consommation alimentaire", "setting": "[2]; normal animals", "value": "ne modifie pas la consommation alimentaire"}, {"measurement": "consommation alimentaire", "setting": "[2]; obese animals", "value": "réduit celle des animaux obèses"}, {"measurement": "effet anorexigène", "setting": "[2]; rat, concluded from the ratio weekly consumption / weekly weight gain", "value": "aucun effet anorexigène"}, {"measurement": "Consommation d'aliments", "setting": "[2]; normal Zucker rats (Témoins), day 7, initial mean consumption 78", "value": 83}, {"measurement": "Consommation d'aliments", "setting": "[2]; normal Zucker rats (Témoins), day 14, initial mean consumption 78", "value": 112}, {"measurement": "Consommation d'aliments", "setting": "[2]; normal Zucker rats (Témoins), day 21, initial mean consumption 78", "value": 120}, {"measurement": "Consommation d'aliments", "setting": "[2]; normal Zucker rats (Témoins), day 28, initial mean consumption 78", "value": 118}, {"measurement": "Consommation d'aliments", "setting": "[2]; obese Zucker rats (Obèses), day 7, initial mean consumption 118", "value": 124}, {"measurement": "Consommation d'aliments", "setting": "[2]; obese Zucker rats (Obèses), day 14, initial mean consumption 118", "value": 131}, {"measurement": "Consommation d'aliments", "setting": "[2]; obese Zucker rats (Obèses), day 21, initial mean consumption 118", "value": 148}, {"measurement": "Consommation d'aliments", "setting": "[2]; obese Zucker rats (Obèses), day 28, initial mean consumption 118", "value": 142}, {"measurement": "taux de cholestérol", "setting": "[3]; animals with normal cholesterol level", "value": "n'a pas d'effet"}, {"measurement": "cholestérolémie", "setting": "[3]; genetically obese rats treated 4 weeks, untreated obese rats 1,7-1,8", "value": "1,1 g par litre"}, {"measurement": "cholestérolémie", "setting": "[3]; genetically obese rats treated 4 weeks, untreated obese rats 4,51", "value": "2,87 mmol par litre"}, {"measurement": "taux de cholestérol", "setting": "[3]; hypercholesterolemic animals", "value": "baisser sensiblement"}, {"measurement": "cholestérolémie", "setting": "[3]; normal rats treated 4 weeks, untreated normal rats 0,9-1", "value": "0,9-1 g par litre"}, {"measurement": "cholestérolémie", "setting": "[3]; normal rats treated 4 weeks, untreated normal rats 2,5", "value": "2,5 mmol par 1."}, {"measurement": "observation of behaviour and growth", "setting": "[4]", "value": "aucun trouble de comportement ni de croissance"}, {"measurement": "LD50 at 336 h", "setting": "[4]; po, solution by oesophageal tube, 12 animals", "value": 5.4, "unit": "mg/kg"}, {"measurement": "mortality", "setting": "[5]; 20 rats, 1/5 of the DL50 daily for 30 days", "value": "Aucune mort"}, {"measurement": "autopsy, macroscopic state of the organs", "setting": "[5]; rat, in vivo", "value": "aucun organe n'était macroscopiquement modifié à l'exception d'une légère pâleur des thyroïdes"}, {"measurement": "composantes biochimiques principales, glycémie, uricémie, urémie", "setting": "[5]; rat, in vivo", "value": "évoluent dans les limites habituelles à l'espèce"}, {"measurement": "formule sanguine", "setting": "[5]; rat, in vivo", "value": "normale"}, {"measurement": "histologie du foie, rate, rein, thyroïde, surénales", "setting": "[5]; rat, in vivo", "value": "n'a rien révélé d'anormal"}, {"measurement": "sensibilisation d'ordre allergique", "setting": "[6]", "value": "négatif"}, {"measurement": "tolérance: tension artérielle, rythme cardiaque, transaminases et phosphatases, glucose, urée sanguine, créatinine urinaire", "setting": "[7]", "value": "aucun paramètre n'a subi de modification"}, {"measurement": "patchtests", "setting": "Patch tests in humans", "value": "n'était pas allergogène"}, {"measurement": "taux de cholestérol sanguin", "setting": "[8]; [9]", "value": "notablement été abaissé"}, {"measurement": "transaminases, phosphatases, uricémie, créatinurie", "setting": "[8]; [9]", "value": "aucune modification"}, {"measurement": "glycémie", "setting": "[8]; 6 obese patients, 4 weeks, the patent attributes the effect probably to the diet", "value": "a diminué également de manière significative"}, {"measurement": "poids", "setting": "[8]; obese humans, statement in words", "value": "baisse de poids très substantielle"}, {"measurement": "POIDS Après (J+30)", "setting": "[8]; obese patient 1, before (J-0) 115", "value": 107}, {"measurement": "POIDS Après (J+30)", "setting": "[8]; obese patient 2, before (J-0) 108", "value": 101}, {"measurement": "POIDS Après (J+30)", "setting": "[8]; obese patient 3, before (J-0) 97", "value": 89}, {"measurement": "POIDS Après (J+30)", "setting": "[8]; obese patient 4, before (J-0) 103", "value": 93}, {"measurement": "POIDS Après (J+30)", "setting": "[8]; obese patient 5, before (J-0) 85", "value": 81}, {"measurement": "POIDS Après (J+30)", "setting": "[8]; obese patient 6, before (J-0) 111", "value": 104}, {"measurement": "tolérance", "setting": "[8]; obese volunteers, hospitalised, 0,3 mg daily in 2 oral doses, 4 weeks", "value": "parfaite"}]}]}
